Assay results from paper PMC8556085, “Antimicrobial and Antioxidant Secondary Metabolites from Trifolium baccarinii Chiov. (Fabaceae) and Their Mechanisms of Antibacterial Action” (BioMed Research International, 2021).
Marks after values point to notes of the source that are not given here.

Legend:
[1] = tested on: Candida albicans ATCC10231; assay: Broth microdilution MIC/MMC; assay type: cell-based
Outline: (§1)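 In each well, sample dilutions met inoculum in MHB or SDB, giving final concentrations of 2048 to 0.125 μg/mL. Plates were shaken at 37°C for 24 h for bacteria, and at 30°C for 48 h for C. albicans or 72 h for C. neoformans, before visual MIC scoring.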

[2] = tested on: Cryptococcus neoformans H99; assay: Broth microdilution MIC/MMC; assay type: cell-based
Outline: as §1

Escherichia coli S2(1) = assay: Broth microdilution MIC/MMC; assay type: cell-based
Outline: as §1

[3] = tested on: Pseudomonas aeruginosa ATCC27853; assay: Broth microdilution MIC/MMC; assay type: cell-based
Outline: as §1

[4] = tested on: Staphylococcus aureus ATCC25923; assay: Broth microdilution MIC/MMC; assay type: cell-based
Outline: as §1

[5] = tested on: methicillin-resistant Staphylococcus aureus 03 (MRSA03); assay: Broth microdilution MIC/MMC; assay type: cell-based
Outline: as §1

[6] = tested on: methicillin-resistant Staphylococcus aureus 04 (MRSA04); assay: Broth microdilution MIC/MMC; assay type: cell-based
Outline: as §1

[7] = tested on: tested bacteria and yeasts; assay: Broth microdilution MIC/MMC, summary over all strains; assay type: cell-based; conditions: against specific microorganism; cutoff points of ref 33
Outline: as §1

[8] = DPPH free radical scavenging assay; conditions: mean ± SD
Experimental: The free radical scavenging activity of extracts and compounds was evaluated according to the described method. The EC50 (μg/mL), which is the amount of sample necessary to inhibit by 50% the absorbance of free radical DPPH, was calculated. Vitamin C was used as a standard control. All the analyses were carried out in triplicate and repeated three times.

catalase = assay: Catalase activity in treated bacterial cell lysates; assay type: cell-based; conditions: Staphylococcus aureus ATCC25923 and MRSA03, MIC and 1/2xMIC, 24 h
Experimental: (§2) (3) Antioxidant Enzyme Activities. For evaluation of catalase and superoxide dismutase (SOD) activities, Staphylococcus aureus ATCC25923 and MRSA03 (1.5 × 10^8 CFU/mL, 500 μL) cultures from the late exponential growth phase were treated with MIC and 1/2xMIC of the methanol extract (500 μL), compound 5 (500 μL), and oxacillin (500 μL) solutions and incubated at 37°C for 24 h. The suspension was centrifuged at 3000 rpm for 5 min to separate the supernatant. The pellet was washed twice with PBS and resuspended in 500 μL of cell lysate buffer (1 mM EDTA, 10 Mm Tris-HCl, 0.1% Triton-X-100, and 150 mM NaCl) and incubated at 37°C for 1 h. Contents were then centrifuged at 3000 rpm for 5 min, and the supernatant was collected for enzyme activity assays.
Catalase activity. This was assessed by using a kit (Sigma, catalogue no. CAT100) with a cell lysate. Briefly, 750 μL of assay buffer (50 mM) was mixed with 25 μL of 50 mM H2O2 and 10 μL of cell lysate. […] The absorbance was monitored at 520 nm, and the catalase activity was calculated based on the following equation: [Δμ moles (H2O2) × d × 100)/V × t], where Δμ moles (H2O2) is the difference in amount of H2O2 added to the reaction mixture between blank and given samples, d is the dilution of the original sample for catalase reaction, V is the sample volume in catalase reaction, and t is the reaction duration (min).

[9] = tested on: superoxide dismutase (SOD); assay: Superoxide dismutase (SOD) activity in treated bacterial cell lysates; assay type: cell-based; conditions: Staphylococcus aureus ATCC25923 and MRSA03, MIC and 1/2xMIC, 24 h
Experimental: as §2
Superoxide dismutase (SOD) activity. This was determined using a kit (Sigma, catalogue no. 19160) in the cell lysate. […] The reaction mixture was incubated in the dark at 37°C for 20 min, and the absorbance was read at 450 nm on a BioTek Synergy 2 multiplate reader. The SOD activity was calculated based on the following formula: [(ABlank1–ABlank3) − (ASample–ABlank2)/(ABlank1–ABlank3) × 100], where Blank 1 contains ultrapure water, WST solution, and enzyme solution, Blank 2 contains sample solution, WST solution, and dilution buffer, and Blank 3 contains ultrapure water, WST solution, and dilution buffer.

[10] = Pseudomonas aeruginosa ATCC27853
[11] = Staphylococcus aureus ATCC25923

**Q.** Which MMC ([1]; Candida albicans ATCC10231) does the source give for “4,7,2′-trihydroxy-4′-methoxyisoflavanol [compound 5]” here?
**A.** 16 µg/mL

**Q.** And the MMC/MIC ([1]; Candida albicans ATCC10231)?
**A.** 2

**Q.** And the MIC ([1]; Candida albicans ATCC10231, 48 h, 30°C)?
**A.** 8 µg/mL

**Q.** And the MMC ([2]; Cryptococcus neoformans H99)?
**A.** 8 µg/mL

**Q.** What about the MMC/MIC ([2]; Cryptococcus neoformans H99) of the same substance?
**A.** 1

**Q.** And the MIC ([2]; Cryptococcus neoformans H99, 72 h, 30°C)?
**A.** 8 µg/mL

**Q.** What about the MMC (Escherichia coli S2(1)) of the same substance?
**A.** 16 µg/mL

**Q.** And the MMC/MIC (Escherichia coli S2(1))?
**A.** 2

**Q.** And the MIC (Escherichia coli S2(1); 24 h, 37°C)?
**A.** 8 µg/mL

**Q.** And the MMC [3, 10]?
**A.** 8 µg/mL

**Q.** What about the MMC/MIC [3, 10] of the same substance?
**A.** 1

**Q.** And the MIC ([3]; Pseudomonas aeruginosa ATCC27853, 24 h, 37°C)?
**A.** 8 µg/mL

**Q.** And the MMC [4, 11]?
**A.** 8 µg/mL

**Q.** And the MMC/MIC [4, 11]?
**A.** 1

**Q.** And the MIC ([4]; Staphylococcus aureus ATCC25923, 24 h, 37°C)?
**A.** 8 µg/mL

**Q.** What about the MMC ([5]; MRSA03) of the same substance?
**A.** 32 µg/mL

**Q.** What about the MMC/MIC ([5]; MRSA03) of the same substance?
**A.** 2

**Q.** And the MIC ([5]; MRSA03, 24 h, 37°C)?
**A.** 16 µg/mL

**Q.** And the MMC ([6]; MRSA04)?
**A.** 16 µg/mL

**Q.** And the MMC/MIC ([6]; MRSA04)?
**A.** 1

**Q.** What about the MIC ([6]; MRSA04, 24 h, 37°C) of the same substance?
**A.** 16 µg/mL

**Q.** What about the “antimicrobial activity class of pure compounds by cutoff points” value [7] of the same substance?
**A.** significant/moderate

**Q.** And the “DPPH free radical scavenging activity (EC50)” value [8]?
**A.** 11.58 ± 0.73^f μg/mL

**Q.** What about the “catalase activity vs untreated cell lysates” value (catalase) of the same substance?
**A.** significant concentration-dependent decreases

**Q.** What about the “SOD activity vs untreated cell lysates” value [9] of the same substance?
**A.** significant concentration-dependent decreases
